Reference: ChEMBL document CHEMBL1201862, “PubChem BioAssay data set” (2004)
The source made the active and inactive calls.

Key:
[1] = biological target: T1, Short transient receptor potential channel 4 (Mus musculus, UniProt Q9QUQ5); experiment: calcium entry via TRPC4 opening agents – cell-based, HEK293 TRPC4/mu-opioid, Fluo-4 calcium, dose response (AID 434937); type: functional
T1 sequence (Q9QUQ5 whole entry): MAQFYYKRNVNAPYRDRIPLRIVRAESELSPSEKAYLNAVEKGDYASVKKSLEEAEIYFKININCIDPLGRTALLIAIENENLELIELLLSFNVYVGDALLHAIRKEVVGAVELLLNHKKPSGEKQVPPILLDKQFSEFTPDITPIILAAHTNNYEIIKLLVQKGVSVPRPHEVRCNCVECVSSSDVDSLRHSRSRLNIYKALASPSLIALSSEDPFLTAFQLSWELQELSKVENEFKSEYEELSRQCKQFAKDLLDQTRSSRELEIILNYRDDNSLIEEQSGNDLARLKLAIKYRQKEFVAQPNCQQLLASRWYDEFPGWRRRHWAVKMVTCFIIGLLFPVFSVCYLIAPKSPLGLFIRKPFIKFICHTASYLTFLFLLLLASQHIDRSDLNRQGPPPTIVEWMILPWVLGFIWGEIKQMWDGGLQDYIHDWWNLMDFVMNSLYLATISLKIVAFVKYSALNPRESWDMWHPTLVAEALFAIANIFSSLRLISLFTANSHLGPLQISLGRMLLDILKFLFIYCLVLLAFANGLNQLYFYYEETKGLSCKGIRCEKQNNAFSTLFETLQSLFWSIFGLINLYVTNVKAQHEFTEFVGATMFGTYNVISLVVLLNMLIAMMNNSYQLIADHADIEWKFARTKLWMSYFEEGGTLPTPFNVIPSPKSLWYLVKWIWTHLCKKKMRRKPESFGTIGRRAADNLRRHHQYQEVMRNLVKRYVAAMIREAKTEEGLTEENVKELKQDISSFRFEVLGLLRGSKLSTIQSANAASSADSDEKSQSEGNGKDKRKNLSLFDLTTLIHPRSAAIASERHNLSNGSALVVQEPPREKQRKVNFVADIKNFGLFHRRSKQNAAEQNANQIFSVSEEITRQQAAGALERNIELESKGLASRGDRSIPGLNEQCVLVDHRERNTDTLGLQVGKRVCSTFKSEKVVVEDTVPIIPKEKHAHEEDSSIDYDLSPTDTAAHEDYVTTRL

[2] = biological target: T2, Corticotropin-releasing factor receptor 2/Corticotropin-releasing factor-binding protein (Homo sapiens, UniProt P24387+Q13324); experiment: activators of CRF receptor 2 with binding protein – uHTS hits, confirmation (AID 602473); type: functional; conditions: read-out: EC50_Mean
T2 sequence (Q13324 whole entry): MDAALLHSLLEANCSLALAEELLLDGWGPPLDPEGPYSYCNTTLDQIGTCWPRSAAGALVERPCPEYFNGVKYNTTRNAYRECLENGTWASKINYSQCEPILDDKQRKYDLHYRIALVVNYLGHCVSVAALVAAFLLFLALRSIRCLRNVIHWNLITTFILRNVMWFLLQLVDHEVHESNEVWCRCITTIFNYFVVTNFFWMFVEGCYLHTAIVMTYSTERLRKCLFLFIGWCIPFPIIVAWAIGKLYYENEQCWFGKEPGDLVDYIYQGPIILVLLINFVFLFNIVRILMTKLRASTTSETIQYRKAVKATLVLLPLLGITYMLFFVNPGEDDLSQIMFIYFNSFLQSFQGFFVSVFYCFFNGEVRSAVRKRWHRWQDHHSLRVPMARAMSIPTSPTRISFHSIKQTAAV
T2 sequence (P24387 whole entry): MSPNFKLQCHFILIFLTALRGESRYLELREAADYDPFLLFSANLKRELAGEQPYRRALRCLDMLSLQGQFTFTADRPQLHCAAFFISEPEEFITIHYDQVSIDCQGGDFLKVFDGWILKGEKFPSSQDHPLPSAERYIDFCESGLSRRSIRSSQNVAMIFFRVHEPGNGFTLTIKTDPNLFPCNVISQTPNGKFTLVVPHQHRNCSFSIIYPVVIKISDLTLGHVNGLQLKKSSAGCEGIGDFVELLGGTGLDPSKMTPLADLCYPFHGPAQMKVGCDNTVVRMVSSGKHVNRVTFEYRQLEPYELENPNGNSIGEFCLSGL

Escherichia coli [3] = experiment: microbe, parasite or virus in culture
Escherichia coli [4] = experiment: microbe, parasite or virus in culture; remark: listed apart in the source
[5] = decrease of insulin promoter-GFP reporter – imaging, high-content screening, mouse beta cells (AID 1628); type: functional; conditions: MIN6
[6] = MIN6 cell viability loss – mouse insulinoma, cytotoxicity control, dose response (AID 2122); type: functional;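 further: confirmatory high-throughput counterscreen run to flag cytotoxic compounds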
Cytochrome P450 2C19 = Cytochrome P450 2C19 (Homo sapiens, UniProt P33261); experiment: Cytochrome panel assay with activity outcomes. Panel member name: p450-cyp2c19 Compounds with AC50 equal or less than 10 uM are considered active; type: functional
Cytochrome P450 2C9 = Cytochrome P450 2C9 (Homo sapiens, UniProt P11712)
[7] = biological target: Induced myeloid leukemia cell differentiation protein Mcl-1 (Homo sapiens, UniProt Q07820); type: functional
[8] = biological target: T3, Heat shock factor protein 1 (Mus musculus, UniProt P38532); experiment: enhancement of HSF1-driven luciferase signal – cell-based, NIH3T3, luminescence, dose retest, confirmation (AID 435004); type: functional;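 further: stress induced by proteasome inhibitor MG132 added 30 min after compound; luciferase reporter driven by HSF1 response element in NIH3T3 cells; actives raise luminescence as potentiators of the MG132 stress response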
T3 sequence (P38532 whole entry): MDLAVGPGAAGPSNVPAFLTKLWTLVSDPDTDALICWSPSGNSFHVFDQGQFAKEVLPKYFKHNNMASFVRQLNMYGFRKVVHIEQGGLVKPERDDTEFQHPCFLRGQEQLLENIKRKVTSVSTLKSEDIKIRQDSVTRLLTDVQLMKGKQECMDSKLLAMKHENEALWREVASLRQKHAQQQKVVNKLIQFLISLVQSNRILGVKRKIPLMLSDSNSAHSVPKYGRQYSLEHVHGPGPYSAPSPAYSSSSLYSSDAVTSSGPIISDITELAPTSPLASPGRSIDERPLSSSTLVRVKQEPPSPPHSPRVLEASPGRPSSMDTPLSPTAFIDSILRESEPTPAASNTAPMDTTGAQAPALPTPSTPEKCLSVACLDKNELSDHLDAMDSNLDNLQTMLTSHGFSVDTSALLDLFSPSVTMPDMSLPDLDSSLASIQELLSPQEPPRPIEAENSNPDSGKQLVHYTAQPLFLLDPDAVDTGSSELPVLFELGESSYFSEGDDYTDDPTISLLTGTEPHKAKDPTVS

Cytochrome P450 1A2 = biological target: T4, Cytochrome P450 1A2 (Homo sapiens, UniProt P05177);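 further: PubChem cytochrome P450 panel assay, CYP1A2 panel member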
T4 sequence (P05177 whole entry): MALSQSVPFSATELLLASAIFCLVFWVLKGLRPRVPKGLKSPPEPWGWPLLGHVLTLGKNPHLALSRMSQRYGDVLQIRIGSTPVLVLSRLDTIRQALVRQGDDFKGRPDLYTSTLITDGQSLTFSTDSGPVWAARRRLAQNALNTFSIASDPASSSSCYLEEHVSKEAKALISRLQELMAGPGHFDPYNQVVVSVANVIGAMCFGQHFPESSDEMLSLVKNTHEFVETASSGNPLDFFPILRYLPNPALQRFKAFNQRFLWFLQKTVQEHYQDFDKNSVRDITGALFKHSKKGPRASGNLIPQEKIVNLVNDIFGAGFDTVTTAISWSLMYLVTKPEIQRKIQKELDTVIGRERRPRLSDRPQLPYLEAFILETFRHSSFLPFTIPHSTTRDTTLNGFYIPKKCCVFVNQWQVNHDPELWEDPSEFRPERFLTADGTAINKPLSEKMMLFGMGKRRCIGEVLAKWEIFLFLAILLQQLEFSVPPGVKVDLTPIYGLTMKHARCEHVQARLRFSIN

Cytochrome P450 3A4 = Cytochrome P450 3A4 (Homo sapiens, UniProt P08684);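 further: CYP3A4 tested as one member of a cytochrome P450 panel screen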
[9] = NIH-3T3 fibroblast cytotoxicity, dose response, cytotoxicity control, cell-based, fluorescence, Alamar Blue, secondary assay (AID 2327); type: functional;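 further: NIH-3T3 mouse fibroblasts cultured with fluconazole at 8 µg/mL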
Large T antigen = Large T antigen (Simian virus 40, UniProt P03070); type: functional, Betapolyomavirus macacae;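 further: Confirmatory-stage PubChem screen for compounds that inhibit SV40 T antigen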
Genome polyprotein = Genome polyprotein (dengue virus type 2, UniProt P29990); experiment: flavivirus cap methylation enzyme inhibition – biochemical, confirmation dose response, primary screen (AID 588689); type: functional
Fatty acid synthase [10] = biological target: T5, Fatty acid synthase (Homo sapiens, UniProt P49327); experiment: inhibition of human FAS-TE enzyme activity – biochemical, endpoint fluorescence intensity, uHTS hits, dose response (AID 624327); type: functional;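 further: fluorescence from hydrolysis of an O-methyl fluorescein acyl ester substrate by the enzyme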
Fatty acid synthase [11] = biological target: T5, Fatty acid synthase; experiment: inhibition of human FAS-TE enzyme activity – biochemical, kinetic fluorescence intensity, dose response (AID 624326); type: functional;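 further: rate of fluorescence rise from hydrolysis of a fluorogenic O-methyl fluorescein ester substrate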

Sequence of Cytochrome P450 2C9 (P11712 whole entry): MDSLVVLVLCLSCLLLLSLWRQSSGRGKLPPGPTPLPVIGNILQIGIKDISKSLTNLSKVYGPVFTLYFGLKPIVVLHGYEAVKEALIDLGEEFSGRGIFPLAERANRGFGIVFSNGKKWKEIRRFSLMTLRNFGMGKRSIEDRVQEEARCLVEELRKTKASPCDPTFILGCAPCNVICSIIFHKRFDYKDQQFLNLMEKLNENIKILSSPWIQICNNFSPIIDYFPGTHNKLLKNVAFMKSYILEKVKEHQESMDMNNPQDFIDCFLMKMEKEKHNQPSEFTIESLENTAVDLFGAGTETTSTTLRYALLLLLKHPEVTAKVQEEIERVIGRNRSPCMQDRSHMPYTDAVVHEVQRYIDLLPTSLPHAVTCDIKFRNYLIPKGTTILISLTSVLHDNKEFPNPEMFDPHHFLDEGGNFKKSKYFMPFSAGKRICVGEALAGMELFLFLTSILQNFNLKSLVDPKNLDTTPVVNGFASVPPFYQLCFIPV
Sequence of Cytochrome P450 2C19 (P33261 whole entry): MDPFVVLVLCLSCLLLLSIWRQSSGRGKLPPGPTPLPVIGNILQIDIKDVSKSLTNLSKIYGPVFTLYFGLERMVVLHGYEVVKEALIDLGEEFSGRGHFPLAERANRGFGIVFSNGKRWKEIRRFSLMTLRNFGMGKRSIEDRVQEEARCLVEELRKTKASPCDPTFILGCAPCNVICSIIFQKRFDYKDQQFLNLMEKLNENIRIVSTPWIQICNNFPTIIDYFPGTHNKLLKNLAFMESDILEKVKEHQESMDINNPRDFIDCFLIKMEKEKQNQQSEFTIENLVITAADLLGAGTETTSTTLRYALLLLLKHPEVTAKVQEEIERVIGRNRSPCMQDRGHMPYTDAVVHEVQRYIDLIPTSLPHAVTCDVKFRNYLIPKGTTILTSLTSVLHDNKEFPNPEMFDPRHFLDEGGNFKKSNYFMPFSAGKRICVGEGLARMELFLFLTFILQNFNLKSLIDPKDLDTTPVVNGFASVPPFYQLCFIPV
T5 sequence (P49327 whole entry): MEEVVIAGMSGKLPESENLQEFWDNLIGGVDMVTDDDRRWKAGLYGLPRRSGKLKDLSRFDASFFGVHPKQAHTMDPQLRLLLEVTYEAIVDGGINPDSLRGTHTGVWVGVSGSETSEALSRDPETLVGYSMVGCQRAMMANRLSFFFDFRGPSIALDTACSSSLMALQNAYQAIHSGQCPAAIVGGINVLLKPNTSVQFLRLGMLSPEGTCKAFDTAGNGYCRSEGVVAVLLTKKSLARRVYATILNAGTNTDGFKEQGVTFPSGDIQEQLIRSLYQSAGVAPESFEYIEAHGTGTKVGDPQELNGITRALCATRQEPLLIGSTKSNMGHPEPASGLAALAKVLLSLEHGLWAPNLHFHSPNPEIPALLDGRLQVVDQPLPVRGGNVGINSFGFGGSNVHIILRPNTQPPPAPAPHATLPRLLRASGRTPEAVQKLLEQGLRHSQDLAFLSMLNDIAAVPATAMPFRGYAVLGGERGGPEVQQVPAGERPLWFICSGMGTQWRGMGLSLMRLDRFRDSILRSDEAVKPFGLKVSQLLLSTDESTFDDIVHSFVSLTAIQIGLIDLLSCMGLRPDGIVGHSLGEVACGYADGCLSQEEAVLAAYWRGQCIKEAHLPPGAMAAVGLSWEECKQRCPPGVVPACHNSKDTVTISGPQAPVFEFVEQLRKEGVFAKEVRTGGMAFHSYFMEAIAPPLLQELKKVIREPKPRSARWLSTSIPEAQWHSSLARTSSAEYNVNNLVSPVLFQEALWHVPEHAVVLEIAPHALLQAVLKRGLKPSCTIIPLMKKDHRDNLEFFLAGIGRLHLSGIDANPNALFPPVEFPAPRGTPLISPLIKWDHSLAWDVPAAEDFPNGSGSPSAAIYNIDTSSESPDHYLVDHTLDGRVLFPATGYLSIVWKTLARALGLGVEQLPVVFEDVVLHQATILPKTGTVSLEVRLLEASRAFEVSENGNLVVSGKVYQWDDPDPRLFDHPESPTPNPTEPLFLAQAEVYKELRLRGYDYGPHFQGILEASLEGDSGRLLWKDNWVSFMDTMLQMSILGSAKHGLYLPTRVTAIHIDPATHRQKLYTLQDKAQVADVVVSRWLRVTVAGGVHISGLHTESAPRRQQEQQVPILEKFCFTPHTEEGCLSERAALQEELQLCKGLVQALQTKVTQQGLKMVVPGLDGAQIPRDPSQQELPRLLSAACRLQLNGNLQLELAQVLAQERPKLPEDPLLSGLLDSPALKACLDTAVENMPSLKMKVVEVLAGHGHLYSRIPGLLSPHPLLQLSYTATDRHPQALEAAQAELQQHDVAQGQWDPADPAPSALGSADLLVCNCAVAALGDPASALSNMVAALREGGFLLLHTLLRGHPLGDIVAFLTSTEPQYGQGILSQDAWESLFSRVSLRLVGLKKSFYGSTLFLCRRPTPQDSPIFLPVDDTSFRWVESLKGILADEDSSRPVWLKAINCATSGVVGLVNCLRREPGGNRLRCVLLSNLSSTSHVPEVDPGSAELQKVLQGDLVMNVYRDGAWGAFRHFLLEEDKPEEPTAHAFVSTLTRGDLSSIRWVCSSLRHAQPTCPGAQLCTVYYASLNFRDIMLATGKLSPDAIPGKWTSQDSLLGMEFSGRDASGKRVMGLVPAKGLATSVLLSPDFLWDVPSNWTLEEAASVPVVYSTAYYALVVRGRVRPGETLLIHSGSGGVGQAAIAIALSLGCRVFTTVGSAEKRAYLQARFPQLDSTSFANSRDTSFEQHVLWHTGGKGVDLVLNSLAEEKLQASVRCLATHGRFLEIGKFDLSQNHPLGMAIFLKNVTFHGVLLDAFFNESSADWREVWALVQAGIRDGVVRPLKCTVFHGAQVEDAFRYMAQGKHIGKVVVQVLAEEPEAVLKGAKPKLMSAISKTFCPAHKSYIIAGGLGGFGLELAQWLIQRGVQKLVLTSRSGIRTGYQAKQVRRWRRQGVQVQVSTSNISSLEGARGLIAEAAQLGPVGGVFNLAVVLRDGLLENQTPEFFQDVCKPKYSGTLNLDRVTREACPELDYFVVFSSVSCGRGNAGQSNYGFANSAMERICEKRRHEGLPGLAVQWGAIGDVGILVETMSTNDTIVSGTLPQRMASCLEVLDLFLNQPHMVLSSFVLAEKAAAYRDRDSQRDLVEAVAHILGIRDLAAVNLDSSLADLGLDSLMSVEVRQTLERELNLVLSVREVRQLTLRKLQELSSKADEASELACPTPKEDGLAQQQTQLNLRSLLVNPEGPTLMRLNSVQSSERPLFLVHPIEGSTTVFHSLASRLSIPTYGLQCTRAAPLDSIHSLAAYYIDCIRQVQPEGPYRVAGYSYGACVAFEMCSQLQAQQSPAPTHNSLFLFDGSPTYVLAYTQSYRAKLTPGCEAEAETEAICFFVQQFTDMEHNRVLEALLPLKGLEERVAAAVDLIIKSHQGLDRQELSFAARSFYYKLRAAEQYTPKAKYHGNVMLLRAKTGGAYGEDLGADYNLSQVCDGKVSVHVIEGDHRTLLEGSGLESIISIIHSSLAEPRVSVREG
Sequence of Induced myeloid leukemia cell differentiation protein Mcl-1 (Q07820 whole entry): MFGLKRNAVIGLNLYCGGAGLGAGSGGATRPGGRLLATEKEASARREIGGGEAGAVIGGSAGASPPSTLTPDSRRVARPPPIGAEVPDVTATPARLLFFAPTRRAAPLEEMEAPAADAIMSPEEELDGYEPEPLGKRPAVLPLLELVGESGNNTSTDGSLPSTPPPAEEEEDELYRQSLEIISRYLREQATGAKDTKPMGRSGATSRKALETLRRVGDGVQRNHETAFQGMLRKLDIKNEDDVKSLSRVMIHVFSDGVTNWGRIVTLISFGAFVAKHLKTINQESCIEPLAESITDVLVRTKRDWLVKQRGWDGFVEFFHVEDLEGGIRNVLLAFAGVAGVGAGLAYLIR
Sequence of Large T antigen (P03070 whole entry): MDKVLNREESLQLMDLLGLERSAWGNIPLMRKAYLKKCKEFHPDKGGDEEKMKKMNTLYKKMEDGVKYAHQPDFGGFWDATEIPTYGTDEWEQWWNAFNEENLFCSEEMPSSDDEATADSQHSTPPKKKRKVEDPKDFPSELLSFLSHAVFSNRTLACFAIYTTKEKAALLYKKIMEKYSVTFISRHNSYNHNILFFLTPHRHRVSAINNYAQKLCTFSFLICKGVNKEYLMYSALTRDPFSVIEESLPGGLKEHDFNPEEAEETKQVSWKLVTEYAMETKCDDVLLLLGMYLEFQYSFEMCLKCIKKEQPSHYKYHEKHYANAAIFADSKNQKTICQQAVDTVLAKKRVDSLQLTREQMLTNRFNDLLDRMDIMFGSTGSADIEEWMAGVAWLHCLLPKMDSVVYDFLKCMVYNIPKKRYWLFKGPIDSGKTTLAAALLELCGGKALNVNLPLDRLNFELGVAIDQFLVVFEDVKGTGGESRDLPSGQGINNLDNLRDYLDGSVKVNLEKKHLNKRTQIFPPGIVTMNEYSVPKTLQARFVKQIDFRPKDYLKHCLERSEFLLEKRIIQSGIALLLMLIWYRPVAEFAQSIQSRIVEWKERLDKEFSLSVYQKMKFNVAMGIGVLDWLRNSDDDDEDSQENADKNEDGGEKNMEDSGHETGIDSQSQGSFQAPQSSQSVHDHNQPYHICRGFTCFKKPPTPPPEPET
Sequence of Cytochrome P450 3A4 (P08684 whole entry): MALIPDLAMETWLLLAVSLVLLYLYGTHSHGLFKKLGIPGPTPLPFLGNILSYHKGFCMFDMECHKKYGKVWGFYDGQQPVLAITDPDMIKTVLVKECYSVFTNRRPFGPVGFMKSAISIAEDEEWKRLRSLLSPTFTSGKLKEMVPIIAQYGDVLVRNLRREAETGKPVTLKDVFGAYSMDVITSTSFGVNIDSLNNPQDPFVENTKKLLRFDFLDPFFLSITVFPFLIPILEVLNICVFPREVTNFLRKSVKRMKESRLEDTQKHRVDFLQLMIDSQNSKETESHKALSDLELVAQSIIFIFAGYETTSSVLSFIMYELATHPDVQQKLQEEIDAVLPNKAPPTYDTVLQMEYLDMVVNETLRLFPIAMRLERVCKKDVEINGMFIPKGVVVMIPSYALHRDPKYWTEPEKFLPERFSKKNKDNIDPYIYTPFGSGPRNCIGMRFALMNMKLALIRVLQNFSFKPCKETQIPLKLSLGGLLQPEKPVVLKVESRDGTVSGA

CCN1C(=O)c2cccc3c(S(=O)(=O)Nc4ccccc4OC)ccc1c23
EC50 [1]: 5.96 µM (active) | EC50 [2]: 7.94 µM (active)

Cc1cc(C)n(-c2ccc(NC(=O)C3CCN(Cc4ccccn4)CC3)cc2)n1
AC50 (Escherichia coli [3]): 39.4 µM (active) | AC50 (Escherichia coli [4]): 51.6 µM (active)

C[C@H]1c2cccc(O)c2C(=O)C2=C(O)C3(O)C(O)=C(C(N)=O)C(=O)[C@@H](N(C)C)[C@@H]3[C@@H](O)[C@@H]21 (some centres undefined)
AC50 (Escherichia coli [3]): 30 µM (active) | AC50 (Escherichia coli [4]): 1.13 µM (active)

Clc1ccc(CN2CCN(c3ncnc4scc(-c5cccs5)c34)CC2)cc1
IC50 [5]: 2.39 µM (active) | IC50 [6]: 2.12 µM (active)

O=C(OCCCN1CCCCC1)c1ccc(O)cc1
AC50 (Cytochrome P450 2C19): inconclusive | AC50 (Cytochrome P450 2C9): inconclusive

Cc1ccc([N+](=O)[O-])cc1/N=N/c1c(-c2ccc([N+](=O)[O-])cc2)[nH]n(C(N)=S)c1=O
IC50 [7]: 1.18 µM (active) | EC50 [8]: > 260 µM (inactive)

Cn1cccc1C(=O)N1CCC2(CC1)CN(c1cccc(-c3ccccc3)c1)C2
AC50 (Cytochrome P450 2C19; read-out: AC50): 39.8 µM (inconclusive) | AC50 (Cytochrome P450 1A2): 25.1 µM (inconclusive) | AC50 (Cytochrome P450 3A4): inconclusive | AC50 (Cytochrome P450 2C9): inconclusive

C[n+]1c(-c2ccccc2)cc(CCCCc2cc(-c3ccccc3)[n+](C)c(-c3ccccc3)c2)cc1-c1ccccc1.[O-][Cl+3]([O-])([O-])[O-].[O-][Cl+3]([O-])([O-])[O-]
EC50 [9]: > 160 µM (inactive) | IC50 [5]: 2.72 µM (active) | IC50 [6]: 4.7 µM (active)

COc1ccc(S(=O)(=O)N2CCCC2)c(Cl)c1Cl
AC50 (Escherichia coli [3]): 71.3 µM (active) | AC50 (Escherichia coli [4]): 37.7 µM (active)

Cc1nc2ccc(NC(=O)c3cc([N+](=O)[O-])cc([N+](=O)[O-])c3Cl)cc2s1
IC50 (Large T antigen): 59.9 µM (active) | IC50 [7]: 5.15 µM (active) | IC50 (Genome polyprotein): 59.6 µM (active) | IC50 (Fatty acid synthase [10]): 2.23 µM (active) | IC50 (Fatty acid synthase [11]): 2.54 µM (active)

CO[C@H]1/C=C/O[C@@]2(C)Oc3c(C)c(O)c4c(O)c(c(/C=N/N5CCN(C)CC5)c(O)c4c3C2=O)NC(=O)/C(C)=C\C=C\[C@H](C)[C@H](O)[C@@H](C)[C@@H](O)[C@@H](C)[C@H](OC(C)=O)[C@@H]1C [RIFAMPIN]
AC50 (Escherichia coli [4]): 32.3 µM (active)

O=C(N/N=C/c1cccc(C(F)(F)F)c1)C1CCN(c2ncc(C(F)(F)F)cc2Cl)CC1
AC50 (Cytochrome P450 2C19): inconclusive | AC50 (Cytochrome P450 2C9): inconclusive
